Test: in vitro
Conditions: human, hek293t cells

Q: For `C=CC(=O)N(Cc1cnn(C2CCC2)c1)C1CCCc2occc21` (centres unmarked) [2-G07, N-[(1-cyclobutyl-1H-pyrazol-4-yl)methyl]-N-(4,5,6,7-tetrahydro-1-benzofuran-4-yl)prop-2-enamide], which viability at 48 h, 25 µM is on record?
A: The viability at 48 h, 25 µM was 103%.

Q: Which viability at 48 h, 25 µM does the source give for `C=CC(=O)NCCc1cscn1` [2-G08, N-[2-(1,3-thiazol-4-yl)ethyl]prop-2-enamide] here?
A: Its viability at 48 h, 25 µM is 87.1%.

Q: Which viability at 48 h, 25 µM does the source give for `C=CC(=O)N(C)Cc1cccc(Cl)c1` [2-G09, N-[(3-chlorophenyl)methyl]-N-methylprop-2-enamide] here?
A: The viability at 48 h, 25 µM was 60.6%.

Q: Which viability at 48 h, 25 µM does the source give for `C=CC(=O)N1CCC(C(=O)NCc2c[nH]cn2)CC1` [2-G10, N-[(1H-imidazol-4-yl)methyl]-1-(prop-2-enoyl)piperidine-4-carboxamide] here?
A: The viability at 48 h, 25 µM was 98.7%.

Q: Which viability at 48 h, 25 µM does the source give for `C=CC(=O)Nc1cc(NC(=O)c2cnn(-c3ccccc3)c2)ccc1F` [2-G11, N-[4-fluoro-3-(prop-2-enamido)phenyl]-1-phenyl-1H-pyrazole-4-carboxamide] here?
A: Its viability at 48 h, 25 µM is 0.749%.

Q: For `C=CC(=O)NCCC(=O)Nc1c(C)c(C)nn1C` [2-G12, N-{2-[(1,3,4-trimethyl-1H-pyrazol-5-yl)carbamoyl]ethyl}prop-2-enamide], which viability at 48 h, 25 µM is on record?
A: The viability at 48 h, 25 µM was 93%.

Q: For `C=CC(=O)N(Cc1c(C)nn(CC)c1C)c1ccc2c(c1)COC2` [2-G13, N-(1,3-dihydro-2-benzofuran-5-yl)-N-[(1-ethyl-3,5-dimethyl-1H-pyrazol-4-yl)methyl]prop-2-enamide], which viability at 48 h, 25 µM is on record?
A: The viability at 48 h, 25 µM was 80.2%.

Q: Which viability at 48 h, 25 µM does the source give for `C=CC(=O)N(CC)CC(=O)N1CCCC(F)(F)C1` [2-G14, N-[2-(3,3-difluoropiperidin-1-yl)-2-oxoethyl]-N-ethylprop-2-enamide] here?
A: Its viability at 48 h, 25 µM is 97.5%.

Q: Which viability at 48 h, 25 µM does the source give for `C=CC(=O)N1CCC(NC(C)=O)(c2noc(C)n2)C1` (centres unmarked) [2-G16, N-[3-(5-methyl-1,2,4-oxadiazol-3-yl)-1-(prop-2-enoyl)pyrrolidin-3-yl]acetamide] here?
A: The viability at 48 h, 25 µM was 94.8%.

Q: For `C=CC(=O)NC1CCOCC1` [2-G17, N-(oxan-4-yl)prop-2-enamide], which viability at 48 h, 25 µM is on record?
A: Its viability at 48 h, 25 µM is 93.3%.

Q: Which viability at 48 h, 25 µM does the source give for `C=CC(=O)N1CCC(c2ncc(C(=O)O)o2)CC1` [2-G19, 2-[1-(prop-2-enoyl)piperidin-4-yl]-1,3-oxazole-5-carboxylic acid] here?
A: The viability at 48 h, 25 µM was 101%.

Q: With `C=CC(=O)N1CCC(Cc2noc(C)n2)CC1` [2-G22, 1-{4-[(5-methyl-1,2,4-oxadiazol-3-yl)methyl]piperidin-1-yl}prop-2-en-1-one] as the compound, how does the viability at 48 h, 25 µM read?
A: Its viability at 48 h, 25 µM is 103%.

Q: For `C=CC(=O)NCc1cn(C)nc1-c1ccccn1` [2-H03, N-{[1-methyl-3-(pyridin-2-yl)-1H-pyrazol-4-yl]methyl}prop-2-enamide], which viability at 48 h, 25 µM is on record?
A: The viability at 48 h, 25 µM was 79.4%.

Q: For `C=CC(=O)N1CCC(C(=O)Nc2cccc(N3CCCC3=O)c2)CC1` [2-H04, N-[3-(2-oxopyrrolidin-1-yl)phenyl]-1-(prop-2-enoyl)piperidine-4-carboxamide], which viability at 48 h, 25 µM is on record?
A: Its viability at 48 h, 25 µM is 84.3%.

Q: For `C=CC(=O)N1CCC(C(=O)NCCC2CCS(=O)(=O)C2)CC1` (centres unmarked) [2-H05, N-[2-(1,1-dioxo-1lambda6-thiolan-3-yl)ethyl]-1-(prop-2-enoyl)piperidine-4-carboxamide], which viability at 48 h, 25 µM is on record?
A: Its viability at 48 h, 25 µM is 78.2%.

Q: For `C=CC(=O)NCc1nonc1C` [2-H07, N-[(4-methyl-1,2,5-oxadiazol-3-yl)methyl]prop-2-enamide], which viability at 48 h, 25 µM is on record?
A: Its viability at 48 h, 25 µM is 57.6%.

Q: For `C=CC(=O)N(CC)CC(=O)N1CCc2c(ncn2CC)C1` [2-H08, N-ethyl-N-(2-{1-ethyl-1H,4H,5H,6H,7H-imidazo[4,5-c]pyridin-5-yl}-2-oxoethyl)prop-2-enamide], which viability at 48 h, 25 µM is on record?
A: The viability at 48 h, 25 µM was 84.8%.

Q: For `C=CC(=O)N1CCC(C(=O)N2CCC(CC(=O)N(C)C)CC2)CC1` [2-H09, N,N-dimethyl-2-{1-[1-(prop-2-enoyl)piperidine-4-carbonyl]piperidin-4-yl}acetamide], which viability at 48 h, 25 µM is on record?
A: Its viability at 48 h, 25 µM is 61.5%.

Q: With `C=CC(=O)N1CCC(C(=O)Nc2cnn(COC)c2)CC1` [2-H10, N-[1-(methoxymethyl)-1H-pyrazol-4-yl]-1-(prop-2-enoyl)piperidine-4-carboxamide] as the compound, how does the viability at 48 h, 25 µM read?
A: The viability at 48 h, 25 µM was 79%.

Q: Which viability at 48 h, 25 µM does the source give for `C=CC(=O)N(C)Cc1nnc(C2CC2)n1C` [2-H11, N-[(5-cyclopropyl-4-methyl-4H-1,2,4-triazol-3-yl)methyl]-N-methylprop-2-enamide] here?
A: The viability at 48 h, 25 µM was 72.8%.

Reference: article PMC11995724, “Antibiotic target discovery by integrated phenotypic and activity-based profiling of electrophilic fragments” (Cell chemical biology, 2025)
